According to paper PMC8147293, “Library of Selenocyanate and Diselenide Derivatives as In Vivo Antichagasic Compounds Targeting Trypanosoma cruzi Mitochondrion” (Pharmaceuticals, 2021):
Like-named read-outs stand apart in the source and are kept apart here.

Key:
Trypanosoma cruzi [1] = experiment: Parasitemia monitoring in infected BALB/c mice, acute Chagas disease; format: in vivo; details: oral 20 mg/kg per day for 5 days from 9th dpi, versus untreated
Method: (§1) Infection was carried out by intraperitoneal inoculation of 5 × 10^5 BTs of T. cruzi per mouse in 0.2 mL PBS [56]. The mice were treated by oral route (~200 µL) once daily for 5 consecutive days. The treatment for mice treated in the acute and chronic phases began when the infection was confirmed (9th day post-infection (dpi)) and was established that the animals had entered the chronic phase (100th dpi), respectively.
(§2) The mice were divided into six groups (n = 3 per group): 0, negative control group (uninfected and untreated mice); I, positive control group (infected and untreated mice); II, BZN group (mice infected and treated with BZN); III, 8 group (mice infected and treated with 8); IV, 10 group (mice infected and treated with 10); V, 15 group (mice infected and treated with 15). The tested compounds and BZN were prepared at 2 mg·mL^−1 in an aqueous suspension vehicle containing 5% (v/v) DMSO and 0.5% (w/v) hydroxypropyl methylcellulose, as previously reported. Therefore, doses of 20 mg·kg^−1 per day were administered for 5 consecutive days, and vehicle only was administered in the negative and positive control groups.
(§3) All in vivo assays for the evaluation of compounds in the acute and chronic CD (Scheme 1)—monitoring of parasitemia, immunosuppression, PCR [59, 60], ELISA [56], and clinical analysis [56]—were performed as previously described. PCR was based on the Spliced Leader (SL) intergenic region sequence of T. cruzi (for detailed description, see literature reported previously).

Trypanosoma cruzi [2] = experiment: Anti-T. cruzi IgG (ELISA) and splenomegaly in treated BALB/c mice; format: in vivo; details: treated BALB/c mice versus untreated; excluding IgG levels of chronic CD
Method: Otherwise, the immune status of the mice was evaluated—through the titer of total anti-T. cruzi IgG and the splenomegaly (Figure S1)—since it is a characteristic linked to the parasite load and the effectiveness ascribed to the potential candidates. […].
as §3
Figure S1. A) Anti-Trypanosoma cruzi immunoglobulin G levels, expressed in absorbance at 492 nm, at different days post-infection (dpi) for each group of mice treated during the acute and chronic phases of Chagas disease: control (untreated), benznidazole (BZN), 8, 10 and 15. Blank and uninfected mice are also […]
included. […] Values are the means of three mice ± standard deviation. (IS) immunosuppression. * Significant differences between untreated and treated mice for α =
0.05. B) Weight percentage of spleens in the chronic Chagas disease for each group of mice treated during the acute and chronic phases of the disease: control (untreated), benznidazole (BZN), 8, 10 and 15. Values are the means of three mice ± standard deviation. In brackets: reduction of splenomegaly in comparison to […]
(§4) (1 picture or pasted object on this page, not shown here)

Trypanosoma cruzi [3] = experiment: PCR of seven organs/tissues of treated BALB/c mice (Spliced Leader sequence); format: in vivo
Method: To assess the efficacy of potential candidates by confirming the absence of infection in the target locations, PCR was carried out at the end of the in vivo timeline (Figure 2C). PCR was positive in seven organs/tissues for the untreated (control) mice groups in both phases, showing the presence of the typical nested amastigotes of the chronic CD.
as §1, §2, §3
Figure 2 (A) Parasitemia profiles of each group of mice infected with Trypanosoma cruzi and treated during the acute Chagas disease over a period of 55 days: control (untreated), benznidazole (BZN), 8, 10 and 15. Treatment days are represented in grey. […]. (B) Parasitemia reactivation by fresh blood in the chronic Chagas disease after the immunosuppression cycles for each group of mice treated during the acute and chronic phases of the disease: control (untreated), benznidazole (BZN), 8, 10, and 15. […]. (C) PCR analysis of seven organs/tissues with the Trypanosoma cruzi Spliced Leader (SL) intergenic region sequence in the chronic Chagas disease for each group of mice treated during the acute and chronic phases of the disease: (a) control (untreated), (b) benznidazole, (c) 8, (d) 10, and (e) 15.

[4] = system: Trypanosoma cruzi bloodstream trypomastigotes (BTs); experiment: Screening against bloodstream trypomastigotes (resazurin); format: cell-based; details: for IC50: Trypanosoma cruzi, Table 1, bloodstream trypomastigotes, 24 h treatment + 4 h resazurin, read-out: Activity IC50 Trypomast.
Method: 2 × 10^6 Bloodstream trypomastigotes (BTs), obtained by cardiac puncture from infected BALB/c mice as previously described, were treated by adding the tested compounds at a concentration range from 50 to 0.1 µM in 96-well microplates (200 µL·well^−1) at 37 °C. After 24 h of treatment, resazurin sodium salt (Sigma-Aldrich) was added to be incubated for further 4 h. Finally, trypanocidal activity was determined following the same procedure as described to assess the trypanocidal activity in the epimastigotes. Each compound concentration was tested in triplicate in three independent experiments.

[5] = format: in vivo; details: BALB/c mice, 20 mg/kg per day for 5 days
Method: Finally, biochemical analyses were performed to assess the toxicity associated to the treatment of compound 8. Kidney, heart and liver biochemical markers were measured, including values from uninfected and BZN-treated mice (Table S2). […] The low toxicity allows compound 8 to be tested at higher doses, establishing an improved treatment schedule based on pharmacokinetics in order to reach a total parasite clearance.
as §3

[6] = system: Trypanosoma cruzi intracellular amastigotes; experiment: Screening against intracellular amastigotes in Vero cells (Giemsa counting); format: cell-based; details: for IC50: Trypanosoma cruzi, Table 1, intracellular amastigotes in Vero cells, 72 h, read-out: Activity IC50 Amast.
Method: (§5) Trypanocidal activity against amastigotes was determined according to the literature reported previously. […]. […] Each compound concentration was tested in triplicate in four separate determinations.

Mammalian Vero cells = experiment: Cytotoxicity test on Vero cells (resazurin); format: cell-based; details: Chlorocebus sabaeus, Table 1, Vero cells, 48 h + 24 h resazurin, read-out: Toxicity IC50 Vero Cell
Method: Mammalian Vero cells (EACC No. 84113001), cultured as previously reported, were used to determine the cytotoxicity of the tested compounds [56]. In short, 1.25 × 10^4 Vero cells·mL^−1 were treated by adding the compounds at a concentration range from 400 to 1 µM in 96-well microplates (200 µL·well^−1) at 37 °C for 48 h. Subsequently, resazurin sodium salt (Sigma-Aldrich) was added to be incubated for further 24 h. Finally, cell viability was determined following the same procedure as described to assess the trypanocidal activity in the epimastigotes. Each compound concentration was tested in triplicate in three independent experiments.

[7] = system: epimastigotes of Trypanosoma cruzi; experiment: Flow cytometry of nucleic acid levels (acridine orange); format: cell-based; details: IC25 concentrations, 72 h
Method: The untreated and treated epimastigotes of T. cruzi described in the NMR analysis were collected by centrifugation, washed three times in PBS and stained with […] rhodamine 123 (Rho) (Sigma-Aldrich) or acridine orange (AO) (Sigma-Aldrich) dyes in 0.5 mL PBS for 20 min at 28 °C [63]. Control epimastigotes with a fully depolarized mitochondrion were obtained by incubation for 40 min with 10 mM KCN prior to Rho loading. Non-stained parasites were also included. After elapsed time, epimastigotes were immediately processed and analyzed by flow cytometry as previously reported.
Figure S2. Nucleic acids levels of Trypanosoma cruzi exposed to benznidazole (BZN) and compounds at […]
Inhibition, in percentage, in the nucleic acids levels with respect to untntreated parasites. Values constitute means of three separate determinations ± standard deviation. Significant differences between untreated and treated parasites for α = 0.05.
as §4

Trypanosoma cruzi [8] = experiment: Parasitemia reactivation after immunosuppression in BALB/c mice; format: in vivo; details: 20 mg/kg per day for 5 days; for reactivation of infection after immunosuppression: compared to untreated mice
Method: Secondly, the experimental cure was determined using a double checking widely used in in vivo trypanocidal trials. This double checking—based on immunosuppression and PCR (Figure 2B,C, respectively)—was performed to evaluate the treatment effectiveness and the disease extent in both acute and chronic CD at the end of the in vivo timeline. The mice whose parasitemia and PCR remain negative after immunosuppression are considered cured.
Immunosuppression enhances the reactivation of any residual infection, which is proportional to the parasite survival rate.
as §1, §2, §3

[9] = system: epimastigotes of T. cruzi Arequipa; experiment: 1H NMR analysis of excreted metabolites; format: cell-based, Trypanosoma cruzi; details: IC25 concentrations, 72 h
Method: 5 × 10^5 epimastigotes·mL^−1 of T. cruzi Arequipa were treated by adding the tested compounds at IC25 concentrations in 25 cm^2 cell culture flasks at 28 °C for 72 h. Untreated controls were also included. Cultures were then centrifuged and filtered, and the metabolites of the supernatants were analyzed using a ^1H NMR spectrometer (VARIAN DIRECT DRIVE 500 MHz […]) with AutoX probe, D2O as solvent and 2,2-dimethyl-2-silapentane-5-sulphonate as the reference signal. Chemical shifts were expressed in parts per million (ppm), and analyses were conducted as previously reported.

[10] = system: Trypanosoma cruzi amastigotes in Vero cells; experiment: Infection rate and amastigotes per Vero cell over 10 days; format: cell-based; details: IC25 concentrations, measured at 2 days intervals for 10 days
Method: Before going ahead on in vivo trials, the in vitro infection rate and the average number of amastigotes per Vero cell were also measured at 2 days intervals for 10 days after treating the infected cultures with BZN and potential candidates (8, 10, and 15) (Figure 1) at ICH25 concentrations resulting from amastigotes screening. […]. Fast-acting drugs are urgently needed, and this feature is an additional advantage since they can eliminate the parasite in a few doses.
as §5
Figure 1 (A) Percentage of infected Vero cells and (B) number of amastigotes of Trypanosoma cruzi per Vero cell exposed to benznidazole (BZN), 8, 10 and 15. Values constitute means of three separate determinations ± standard deviation. * Significant differences between untreated and treated parasites for α = 0.05. dpi, days post-infection.

Trypanosoma cruzi Fe-SOD = experiment: SOD enzymatic inhibition, Fe-SOD; format: biochemical; details: 100 to 0.1 µM
Method: (§6) Excreted Fe-SOD protein—obtained and quantified as previously described [64]—and commercial Cu/Zn-SOD from human erythrocytes (Sigma-Aldrich) were exposed to the tested compounds at a concentration range from 100 to 0.1 µM to determine in vitro activities using the method previously described.

[11] = system: epimastigotes of T. cruzi Arequipa strain; experiment: Screening against extracellular epimastigotes (resazurin); format: cell-based, Trypanosoma cruzi; details: for IC50: Trypanosoma cruzi
Method: Trypanocidal activity against epimastigotes of T. cruzi Arequipa strain (MHOM/Pe/2011/Arequipa, discrete typing unit V) was tested as previously described. In short, 5 × 10^5 epimastigotes·mL^−1 were treated by adding the tested compounds at a concentration range from 100 to 0.2 µM in 96-well microplates (200 µL·well^−1) for 48 h. Subsequently, resazurin sodium salt (Sigma-Aldrich) was added to be incubated for further 24 h. Finally, the absorbance was measured, and the trypanocidal activity was expressed as the IC50 (inhibitory concentration 50) using GraphPad Prism 6 software. Each compound concentration was tested in triplicate in three independent experiments.

[12] = molecular target: T1, human erythrocytes CuZn-SOD (Homo sapiens, UniProt P00441); experiment: SOD enzymatic inhibition, CuZn-SOD; format: biochemical; details: 100 to 0.1 µM, read-out: CuZn-SOD IC50 (in brackets)
T1 construct: commercial Cu/Zn-SOD from human erythrocytes (Sigma-Aldrich); purchased Sigma-Aldrich; host or cells: human erythrocytes
Method: as §6

T1 sequence (P00441 whole entry): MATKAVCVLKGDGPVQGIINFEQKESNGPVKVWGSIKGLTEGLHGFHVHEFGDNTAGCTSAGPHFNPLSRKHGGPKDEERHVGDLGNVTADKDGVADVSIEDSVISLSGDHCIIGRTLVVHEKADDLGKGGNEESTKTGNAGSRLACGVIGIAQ

O=C(Cn1ccnc1[N+](=O)[O-])NCc1ccccc1 [BZN, benznidazole, reference compound]
parasitemia levels (counting BTs) during the acute CD (Trypanosoma cruzi [1]): remarkable parasitemia reduction
total anti-T. cruzi IgG levels and splenomegaly (Trypanosoma cruzi [2]): significant reduction
negative PCR (parasite-free locations) (Trypanosoma cruzi [3]; mice treated in acute CD): 2/7
negative PCR (parasite-free locations) (Trypanosoma cruzi [3]; mice treated in chronic CD): 3/7
IC50 [4]: 12.4 ± 1.1 µM
kidney, heart and liver biochemical markers [5]: disturbed 2 days after treatment
IC50 [6]: 8.3 ± 0.7 µM
IC50 (Mammalian Vero cells): 80.4 ± 7.1 µM
reduction in nucleic acid levels with respect to untreated parasites [7]: 22.4%
reactivation of infection after immunosuppression (Trypanosoma cruzi [8]; mice treated in acute CD): 81%
reactivation of infection after immunosuppression (Trypanosoma cruzi [8]; mice treated in chronic CD): 68%

N#C[Se]Cc1ccccc1[N+](=O)[O-] [compound 15]
parasitemia levels (counting BTs) during the acute CD (Trypanosoma cruzi [1]): non-significant differences
excretion of metabolites versus untreated parasites (in words) [9]: strikingly increased
total anti-T. cruzi IgG levels and splenomegaly (Trypanosoma cruzi [2]): Slight or non-significant reductions
infection rate and average number of amastigotes per Vero cell [10]: decrease in both infection rate and number of amastigotes per cell in a time-dependent manner
Selectivity Index Trypomast. ([4]; IC50 Vero cells/IC50 trypomastigotes): 14
IC50 [4]: 1.3 ± 0.3 µM
SOD inhibitory activity (in words) (Trypanosoma cruzi Fe-SOD): no inhibitory activity
Selectivity Index Amast. ([6]; IC50 Vero cells/IC50 amastigotes): 36
IC50 [6]: 0.5 µM
CC50 (Mammalian Vero cells; 72 h): 17.9 ± 1 µM
Selectivity Index Epimast. ([11]; IC50 Vero cells/IC50 epimastigotes): 20
IC50 ([11]; Table 1, T. cruzi epimastigotes, 48 h treatment + 24 h resazurin, read-out: Activity IC50 Epimast.): 0.9 ± 0.1 µM
IC50 ([11]; Table S1, cultured epimastigote form of T. cruzi, read-out: Activity IC50): ≤ 10 µM
IC50 [12]: > 100 µM
reactivation of infection after immunosuppression (in words) (Trypanosoma cruzi [8]; acute and chronic CD): non-significant differences
